Like-named read-outs stand apart in the source and are kept apart here.
Experiments:
HT29 (colon carcinoma) = assay: MTT in vitro growth inhibition assay, HT29; assay type: cell-based; conditions: Homo sapiens; for inhibition at 25 µM: HT-29, 25 µM of drug, 72 h, read-out: Percentage of Cell Growth Inhibition HT29
U87 (glioblastoma) = assay: MTT in vitro growth inhibition assay, U87; assay type: cell-based; conditions: for inhibition at 25 µM: 25 µM of drug, 72 h, read-out: Percentage of Cell Growth Inhibition U87
MCF-7 (breast carcinoma) = assay: MTT in vitro growth inhibition assay, MCF-7; assay type: cell-based; conditions: Homo sapiens; for inhibition at 25 µM: MCF7, 25 µM of drug, 72 h, read-out: Percentage of Cell Growth Inhibition MCF-7
[1] = tested on: A2780 (ovarian carcinoma); assay: MTT in vitro growth inhibition assay, A2780; assay type: cell-based; conditions: Homo sapiens; for inhibition at 25 µM: 25 µM of drug, 72 h, read-out: Percentage of Cell Growth Inhibition A2780
H460 (lung carcinoma) = assay: MTT in vitro growth inhibition assay, H460; assay type: cell-based; conditions: Homo sapiens; for inhibition at 25 µM: NCI-H460, 25 µM of drug, 72 h, read-out: Percentage of Cell Growth Inhibition H460
A431 (skin carcinoma) = assay: MTT in vitro growth inhibition assay, A431; assay type: cell-based; conditions: Homo sapiens; for inhibition at 25 µM: A-431, 25 µM of drug, 72 h, read-out: Percentage of Cell Growth Inhibition A431
[2] = tested on: Du145 (prostate carcinoma); assay: MTT in vitro growth inhibition assay, Du145; assay type: cell-based; conditions: Homo sapiens; for inhibition at 25 µM: DU-145, 25 µM of drug, 72 h, read-out: Percentage of Cell Growth Inhibition Du145
BE2-C (neuroblastoma) = assay: MTT in vitro growth inhibition assay, BE2-C; assay type: cell-based; conditions: Homo sapiens, BE(2)-C, 72 h; for inhibition at 25 µM: 25 µM of drug, read-out: Percentage of Cell Growth Inhibition BE2-C
SJ-G2 (glioblastoma) = assay: MTT in vitro growth inhibition assay, SJ-G2; assay type: cell-based; conditions: for inhibition at 25 µM: 25 µM of drug, 72 h, read-out: Percentage of Cell Growth Inhibition SJ-G2
[3] = tested on: MIA (pancreatic carcinoma); assay: MTT in vitro growth inhibition assay, MIA; assay type: cell-based; conditions: for inhibition at 25 µM: 25 µM of drug, 72 h, read-out: Percentage of Cell Growth Inhibition MIA
[4] = tested on: SMA (spontaneous murine astrocytoma); assay: MTT in vitro growth inhibition assay, SMA; assay type: cell-based; conditions: Mus musculus; for inhibition at 25 µM: 25 µM of drug, 72 h, read-out: Percentage of Cell Growth Inhibition SMA
[5] = tested on: MCF10A (normal breast cell line); assay: MTT in vitro growth inhibition assay, MCF10A; assay type: cell-based; conditions: Homo sapiens, MCF-10A; for inhibition at 25 µM: 25 µM of drug, 72 h, read-out: Percentage of Cell Growth Inhibition MCF10A
[6] = tested on: panel of 11 cancer cell lines and one normal cell line; assay: Cytotoxicity across the whole cell line panel (MTT); assay type: cell-based; conditions: for activity at the initial screening concentration (to proceed to GI50 determination): 25 µM single dose
From the text: With the desired bolinaquinone analogues 12–43 in hand, we examined their cytotoxicity against a panel of 11 tumour cell lines: HT29 (colon carcinoma), U87 and SJ-G2 (glioblastoma), MCF-7 (breast carcinoma), A2780 (ovarian carcinoma), H460 (lung carcinoma), A431 (skin carcinoma), Du145 (prostate carcinoma), BE2-C (neuroblastoma), MIA (pancreatic carcinoma), SMA (spontaneous murine astrocytoma) and a normal breast cell line (MCF10A). The inclusion of the MCF-10A cell line allowed a determination of a crude measure of relative toxicity while noting that the ultimate arbiter of toxicity requires in vivo evaluation. All analogues were initially screened at a 25 µM drug concentration.
Stock solutions were prepared as follows and stored at −20°C: drugs were stored as 40 mM solutions in DMSO. All cell lines were cultured in a humidified atmosphere 5% CO2 at 37°C. The cancer cell lines were maintained in Dulbecco's modified Eagle's medium (DMEM) (Trace Biosciences, Australia) supplemented with 10% fetal bovine serum, 10 mM sodium bicarbonate, penicillin (100 IU ml^−1), streptomycin (100 µg ml^−1) and glutamine (4 mM). The non-cancer MCF10A cell line was cultured in DMEM:F12 (1 : 1) cell culture media, 5% heat-inactivated horse serum, supplemented with penicillin (50 IU ml^−1), streptomycin (50 µg ml^−1), 20 mM Hepes, L-glutamine (2 mM), epidermal growth factor (20 ng ml^−1), hydrocortisone (500 ng ml^−1), cholera toxin (100 ng ml^−1) and insulin (10 ug ml^−1).
Cells in logarithmic growth were transferred to 96-well plates. Cytotoxicity was determined by plating cells in duplicate in 100 µl medium at a density of 2500–4000 cells per well. On day 0 (24 h after plating), when the cells were in logarithmic growth, 100 μl of medium with or without the test agent was added to each well. After 72 h, drug exposure growth inhibitory effects were evaluated using the MTT (3-[4,5-dimethylthiazol-2-yl]-2,5-diphenyl-tetrazolium bromide) assay and the absorbance read at 540 nm. Percentage growth inhibition was determined at a fixed drug concentration of 25 µM. A value of 100% is indicative of complete cell growth inhibition. Those analogues showing appreciable percentage growth inhibition underwent further dose–response analysis allowing for the calculation of a GI50 value. This value is the drug concentration at which cell growth is 50% inhibited based on the difference between the optical density values on day 0 and those at the end of drug exposure.

Row | SMILES | inhibition at 25 µM (HT29 (colon carcinoma)) [%] | inhibition at 25 µM (U87 (glioblastoma)) [%] | inhibition at 25 µM (MCF-7 (breast carcinoma)) [%] | inhibition at 25 µM [1] [%] | inhibition at 25 µM (H460 (lung carcinoma)) [%] | inhibition at 25 µM (A431 (skin carcinoma)) [%] | inhibition at 25 µM [2] [%] | inhibition at 25 µM (BE2-C (neuroblastoma)) [%] | inhibition at 25 µM (SJ-G2 (glioblastoma)) [%] | inhibition at 25 µM [3] [%] | inhibition at 25 µM [4] [%] | inhibition at 25 µM [5] [%] | activity at the initial screening concentration (to proceed to GI50 determination) [6] | melting point [°C] | also measured
1 | COC1=CC(=O)C(OC)=C(c2cccc(C)c2)C1=O [compound 14, 2,5-Dimethoxy-3-m-tolylcyclohexa-2,5-diene-1,4-dione] | 12 ± 3 | 21 ± 7 | 22 ± 11 | 59 ± 13 | 19 ± 2 | 26 ± 5 | 28 ± 8 | 80 ± 10 | 38 ± 18 | 24 ± 7 | 36 ± 7 | 16 ± 5 | not sufficiently active | 74 to 77 | –
2 | CCCCc1ccc(C2=C(OC)C(=O)C=C(OC)C2=O)cc1 [compound 15, 3-(4-Butylphenyl)-2,5-dimethoxycyclohexa-2,5-diene-1,4-dione] | < 10 | 10 ± 7 | 19 ± 7 | 39 ± 14 | < 10 | < 10 | < 10 | 41 ± 18 | 12 ± 6 | < 10 | 25 ± 10 | < 10 | not sufficiently active | – | –
3 | COC1=CC(=O)C(OC)=C(c2ccccc2OC)C1=O [compound 18, 3-(2-Methoxyphenyl)-2,5-dimethoxycyclohexa-2,5-diene-1,4-diene] | 13 ± 6 | 15 ± 2 | 22 ± 9 | 33 ± 6 | 22 ± 2 | 28 ± 4 | 14 ± 8 | 75 ± 9 | 17 ± 8 | 19 ± 5 | 34 ± 8 | 15 ± 5 | not sufficiently active | 162 to 164 | –
4 | COC1=CC(=O)C(OC)=C(c2cccc(OC)c2)C1=O [compound 19, 3-(3-Methoxyphenyl)-2,5-dimethoxycyclohexa-2,5-diene-1,4-diene] | 13 ± 4 | 20 ± 5 | 36 ± 14 | 60 ± 11 | 19 ± 1 | 22 ± 2 | 24 ± 6 | 70 ± 5 | 26 ± 12 | 20 ± 6 | 40 ± 8 | 15 ± 3 | not sufficiently active | 72 to 75 | –
5 | COC1=CC(=O)C(OC)=C(c2cc(OC)ccc2OC)C1=O [compound 21, 2,5-Dimethoxy-3-(2,5-dimethoxyphenyl)cyclohexa-2,5-diene-1,4-dione] | 16 ± 4 | 14 ± 2 | 13 ± 6 | 26 ± 9 | 17 ± 7 | 12 ± 3 | 17 ± 5 | 49 ± 11 | 16 ± 7 | 15 ± 2 | 26 ± 4 | < 10 | not sufficiently active | – | –
6 | COC1=CC(=O)C(OC)=C(c2cccc(OC)c2OC)C1=O [compound 22, 2,5-Dimethoxy-3-(2,3-dimethoxyphenyl)cyclohexa-2,5-diene-1,4-dione] | 15 ± 1 | 14 ± 8 | 16 ± 10 | 44 ± 8 | 20 ± 2 | 35 ± 5 | 23 ± 9 | 75 ± 8 | 23 ± 10 | 24 ± 4 | 31 ± 7 | 18 ± 2 | not sufficiently active | 122 to 125 | –
7 | COC1=CC(=O)C(OC)=C(c2ccc(OC)c(OC)c2)C1=O [compound 23, 2,5-Dimethoxy-3-(3,4-dimethoxyphenyl)cyclohexa-2,5-diene-1,4-dione] | > 100 | > 100 | > 100 | > 100 | 77 ± 4 | 95 ± 4 | 81 ± 4 | > 100 | > 100 | > 100 | > 100 | 62 ± 4 | – | 135 to 137 | GI50 (HT29 (colon carcinoma); HT-29, 72 h drug exposure): 11 ± 0.17 µM; GI50 (U87 (glioblastoma); 72 h drug exposure): 9.5 ± 1.2 µM; GI50 (MCF-7 (breast carcinoma); MCF7, 72 h drug exposure): 6.1 ± 1.1 µM; GI50 ([1]; 72 h drug exposure): 3.8 ± 0.75 µM; GI50 (H460 (lung carcinoma); NCI-H460, 72 h drug exposure): 15 ± 2 µM; GI50 (A431 (skin carcinoma); A-431, 72 h, 72 h drug exposure): 13 ± 0.58 µM; GI50 ([2]; DU-145, 72 h, 72 h drug exposure): 13 ± 0.58 µM; GI50 (BE2-C (neuroblastoma); 72 h drug exposure): 3 ± 0.35 µM; GI50 (SJ-G2 (glioblastoma); 72 h drug exposure): 12 ± 0.67 µM; GI50 ([3]; 72 h drug exposure): 4.8 ± 0.91 µM; GI50 ([4]; 72 h drug exposure): 3.9 ± 0.54 µM; GI50 ([5]; normal breast cell line, 72 h drug exposure): 19 ± 1.3 µM; cytotoxicity spectrum across the panel [6]: broad-spectrum active; GI50 ([6]; average over the cell line panel, read-out: average GI50): 10.2 µM; GI50 ([6]; span over the cell line panel, read-out: GI50 values across the cell lines examined (range)): 3 to 15 µM
